Test results as given in patent US7361671B2, “Substituted heteroarylalkanoic acids” (The Institute for Pharmaceutical Discovery, Inc., priority 2001, dated 2008).
pIC50: −log10 of the molar value. Where a name gives a salt, the structure may show the parent alone.

molecular target: human aldose reductase (hALR2) (Homo sapiens, UniProt P15121); experiment: inhibition of human aldose reductase (hALR2) activity, methods similar to Butera et al.; format: biochemical; details: concentration to inhibit activity by 50%, read-out: hAR-#1 (aldose)
Procedure: Representative compounds of the invention are tested for their potency, selectivity and efficacy as inhibitors of human aldose reductase. […] Using this assay, the concentrations required to inhibit human aldose reductase (hALR2) activity by 50% (IC50) are determined.

Point of comparison: `O=C(O)Cc1cc(Cc2nc3c(F)c(F)cc(F)c3s2)cnc1Cc1ccccc1` [Example 12, 2-benzyl-5-(4,5,7-trifluoro-benzothiazol-2-ylmethyl)-pyridin-3-yl-acetic acid hydrochloride], pIC50 8.30. Against it:
- Cc1c(CC(=O)O)csc1Cc1nc2c(F)c(F)cc(F)c2s1 [Example 24, [4-methyl-5-(4,5,7-trifluoro-benzothiazol-2-ylmethyl)-thiophen-3-yl]-acetic acid] — 0.79 log units lower, 7.51
- Cc1nc(C)c(Cc2nc3c(F)c(F)cc(F)c3s2)c(C)c1CC(=O)O [Example 9, 2,4,6-trimethyl-5-(4,5,7-trifluoro-benzothiazol-2-ylmethyl)-pyridin-3-yl-acetic acid hydrochloride] — within 0.2 log units, 8.22
- O=C(O)Cc1cnc(Cc2ccccc2)c(Cc2nc3c(F)c(F)cc(F)c3s2)c1 [Example 16, 6-Benzyl-5-(4,5,7-trifluoro-benzothiazol-2-ylmethyl)-pyridin-3-yl-acetic acid hydrochloride] — within 0.2 log units, 8.15
- O=C(O)Cc1cc(Cc2nc3c(F)c(F)cc(F)c3s2)cnc1-c1ccccc1 [Example 13, 2-phenyl-5-(4,5,7-trifluoro-benzothiazol-2-ylmethyl)-pyridin-3-yl-acetic acid hydrochloride] — 0.20 log units lower, 8.10
- O=C(O)Cc1cncc(Cc2nc3c(F)c(F)cc(F)c3s2)c1 [Example 8, 5-(4,5,7-trifluoro-benzothiazol-2-ylmethyl)-pyridin-3-yl-acetic acid hydrochloride] — 0.20 log units lower, 8.10
- O=C(O)Cc1cnc(-c2ccccc2)c(Cc2nc3c(F)c(F)cc(F)c3s2)c1 [Example 15, 6-Phenyl-5-(4,5,7-trifluoro-benzothiazol-2-ylmethyl)-pyridin-3-yl-acetic acid hydrochloride] — within 0.2 log units, 8.22
- Cc1ccc2c(Cc3nc4c(F)c(F)cc(F)c4s3)cn(CC(=O)O)c2n1 [Example 2, [6-methyl-3-(4,5,7-trifluoro-benzothiazol-2-ylmethyl)-pyrrolo[2,3-b]pyridin-1-yl]-acetic acid] — 0.20 log units lower, 8.10
- CCc1c(CC(=O)O)c(C)nc(C)c1Cc1nc2c(F)c(F)cc(F)c2s1 [Example 10, 2,6-dimethyl-4-ethyl-5-(4,5,7-trifluoro-benzothiazol-2-ylmethyl)-pyridin-3-yl-acetic acid hydrochloride] — 0.79 log units lower, 7.51
- O=C(O)Cc1csc(Cc2nc3c(F)c(F)cc(F)c3s2)n1 [Example 25, [2-(4,5,7-Trifluoro-benzothiazol-2-ylmethyl)-thiazol-4-yl]-acetic acid] — 1.41 log units lower, 6.89
- CCc1ncc(Cc2nc3c(F)c(F)cc(F)c3s2)cc1CC(=O)O [Example 11, 2-ethyl-5-(4,5,7-trifluoro-benzothiazol-2-ylmethyl)-pyridin-3-yl-acetic acid hydrochloride] — within 0.2 log units, 8.22
